The results in this text go back to ChEMBL document CHEMBL5291721, “A preclinical secondary pharmacology resource illuminates target-adverse drug reaction associations of marketed drugs” (Nat Commun, 2023).

Molecules are shown by their SMILES.

As a reminder, the AC50 is the concentration giving half of the maximal activity seen.

The target of assay [1] is Mu-type opioid receptor (Homo sapiens, UniProt P35372). Briefly: biochemical. It counts as functional.
Assay [2] deals with T1, Corticotropin-releasing factor receptor 1 (Homo sapiens, UniProt P34998).
T1 sequence (P34998 whole entry): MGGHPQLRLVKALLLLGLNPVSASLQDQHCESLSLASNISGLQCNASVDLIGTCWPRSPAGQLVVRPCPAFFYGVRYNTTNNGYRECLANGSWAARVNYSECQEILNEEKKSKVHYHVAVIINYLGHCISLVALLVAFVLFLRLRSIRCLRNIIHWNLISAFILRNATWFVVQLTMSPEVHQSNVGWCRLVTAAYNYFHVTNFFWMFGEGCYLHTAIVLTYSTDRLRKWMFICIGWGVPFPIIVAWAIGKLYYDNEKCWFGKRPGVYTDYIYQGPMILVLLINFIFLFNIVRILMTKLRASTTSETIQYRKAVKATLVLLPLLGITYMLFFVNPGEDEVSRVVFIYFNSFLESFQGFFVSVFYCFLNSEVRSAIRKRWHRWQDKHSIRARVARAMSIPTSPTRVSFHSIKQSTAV

Assay [3] addresses T2, D(4) dopamine receptor (Homo sapiens, UniProt P21917).
T2 sequence (P21917 whole entry): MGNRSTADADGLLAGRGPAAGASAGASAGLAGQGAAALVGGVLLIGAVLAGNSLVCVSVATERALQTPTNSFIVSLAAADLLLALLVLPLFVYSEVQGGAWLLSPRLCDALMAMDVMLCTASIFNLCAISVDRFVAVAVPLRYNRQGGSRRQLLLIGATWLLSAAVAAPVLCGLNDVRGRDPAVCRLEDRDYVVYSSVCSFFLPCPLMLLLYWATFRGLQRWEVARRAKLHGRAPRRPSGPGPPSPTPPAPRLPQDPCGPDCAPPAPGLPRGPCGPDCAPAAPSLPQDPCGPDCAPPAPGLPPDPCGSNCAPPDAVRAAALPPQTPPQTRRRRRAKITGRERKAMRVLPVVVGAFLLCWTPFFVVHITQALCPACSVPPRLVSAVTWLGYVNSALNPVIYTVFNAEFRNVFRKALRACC

Assay [4] addresses Estrogen receptor beta (Homo sapiens, UniProt Q92731).
For assay [5], the target named is T3, Neuropeptide Y receptor type 2 (Homo sapiens, UniProt P49146).
T3 sequence (P49146 whole entry): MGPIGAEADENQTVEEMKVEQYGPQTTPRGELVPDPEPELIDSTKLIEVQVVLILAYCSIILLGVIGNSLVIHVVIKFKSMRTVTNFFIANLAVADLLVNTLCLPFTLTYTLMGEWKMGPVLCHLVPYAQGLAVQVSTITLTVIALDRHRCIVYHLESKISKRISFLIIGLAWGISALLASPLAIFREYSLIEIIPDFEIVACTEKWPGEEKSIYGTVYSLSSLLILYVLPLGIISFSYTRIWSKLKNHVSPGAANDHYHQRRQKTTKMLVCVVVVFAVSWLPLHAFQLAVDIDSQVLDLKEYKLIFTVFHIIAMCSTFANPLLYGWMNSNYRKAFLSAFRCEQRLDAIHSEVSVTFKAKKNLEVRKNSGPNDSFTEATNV

The target in assay [6] is Substance-P receptor (Homo sapiens, UniProt P25103).
Chain of Substance-P receptor (P25103 whole entry): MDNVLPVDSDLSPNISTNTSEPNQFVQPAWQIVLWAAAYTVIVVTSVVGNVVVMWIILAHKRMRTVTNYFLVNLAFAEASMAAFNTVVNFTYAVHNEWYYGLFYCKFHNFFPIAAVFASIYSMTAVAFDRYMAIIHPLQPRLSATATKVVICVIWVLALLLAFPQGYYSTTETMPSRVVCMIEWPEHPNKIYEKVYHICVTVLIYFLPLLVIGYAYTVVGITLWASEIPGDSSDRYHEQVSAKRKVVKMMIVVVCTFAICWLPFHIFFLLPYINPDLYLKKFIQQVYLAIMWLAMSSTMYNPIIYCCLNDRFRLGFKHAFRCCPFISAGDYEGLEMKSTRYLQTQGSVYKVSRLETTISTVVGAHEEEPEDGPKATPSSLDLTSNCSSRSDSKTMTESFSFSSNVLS
In assay [7] the target is D(1A) dopamine receptor (Homo sapiens, UniProt P21728).
Chain of D(1A) dopamine receptor (P21728 whole entry): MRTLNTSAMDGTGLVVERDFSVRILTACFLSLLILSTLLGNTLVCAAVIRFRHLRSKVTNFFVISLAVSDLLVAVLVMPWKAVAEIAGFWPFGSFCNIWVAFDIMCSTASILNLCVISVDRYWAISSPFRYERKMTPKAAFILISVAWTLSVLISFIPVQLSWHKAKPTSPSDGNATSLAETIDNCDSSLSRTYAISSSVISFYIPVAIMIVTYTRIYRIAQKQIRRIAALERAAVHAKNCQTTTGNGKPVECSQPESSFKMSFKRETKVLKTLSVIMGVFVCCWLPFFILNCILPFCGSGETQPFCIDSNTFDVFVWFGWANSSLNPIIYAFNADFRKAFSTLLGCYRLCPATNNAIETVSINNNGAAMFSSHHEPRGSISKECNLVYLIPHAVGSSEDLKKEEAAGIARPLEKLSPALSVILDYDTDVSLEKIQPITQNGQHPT
Assay [8] deals with Gamma-aminobutyric acid receptor subunit alpha-1/alpha-2/beta-2/gamma-2 (Homo sapiens, UniProt P14867+P18507+P47869+P47870). It counts as functional, cell-based.
Chain of Gamma-aminobutyric acid receptor subunit alpha-1/alpha-2/beta-2/gamma-2 (P14867 whole entry): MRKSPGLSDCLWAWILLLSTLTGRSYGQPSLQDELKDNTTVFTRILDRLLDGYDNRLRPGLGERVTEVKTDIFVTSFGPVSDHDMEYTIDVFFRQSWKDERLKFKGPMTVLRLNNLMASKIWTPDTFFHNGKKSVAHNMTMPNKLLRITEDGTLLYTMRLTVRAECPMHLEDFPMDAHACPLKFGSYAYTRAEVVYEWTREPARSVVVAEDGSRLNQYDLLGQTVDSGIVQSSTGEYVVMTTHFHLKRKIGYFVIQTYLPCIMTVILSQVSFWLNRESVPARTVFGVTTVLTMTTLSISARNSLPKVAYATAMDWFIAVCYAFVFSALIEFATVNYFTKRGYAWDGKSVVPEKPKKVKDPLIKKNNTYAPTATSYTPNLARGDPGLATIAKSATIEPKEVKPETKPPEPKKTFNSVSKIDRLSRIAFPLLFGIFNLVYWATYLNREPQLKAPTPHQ
Chain of Gamma-aminobutyric acid receptor subunit alpha-1/alpha-2/beta-2/gamma-2 (P47870 whole entry): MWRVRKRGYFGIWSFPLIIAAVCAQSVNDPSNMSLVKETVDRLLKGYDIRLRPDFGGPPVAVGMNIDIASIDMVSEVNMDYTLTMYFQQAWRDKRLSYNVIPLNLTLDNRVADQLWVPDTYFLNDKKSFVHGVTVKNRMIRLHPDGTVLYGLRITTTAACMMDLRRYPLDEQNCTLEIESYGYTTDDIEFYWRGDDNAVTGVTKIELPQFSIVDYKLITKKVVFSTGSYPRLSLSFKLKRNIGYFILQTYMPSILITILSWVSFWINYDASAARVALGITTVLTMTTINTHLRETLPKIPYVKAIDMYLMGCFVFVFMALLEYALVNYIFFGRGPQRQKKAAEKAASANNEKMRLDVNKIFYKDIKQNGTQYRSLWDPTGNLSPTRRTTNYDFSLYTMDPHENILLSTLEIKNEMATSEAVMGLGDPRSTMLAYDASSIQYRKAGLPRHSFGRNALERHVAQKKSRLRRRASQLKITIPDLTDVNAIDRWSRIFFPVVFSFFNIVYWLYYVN
Chain of Gamma-aminobutyric acid receptor subunit alpha-1/alpha-2/beta-2/gamma-2 (P18507 whole entry): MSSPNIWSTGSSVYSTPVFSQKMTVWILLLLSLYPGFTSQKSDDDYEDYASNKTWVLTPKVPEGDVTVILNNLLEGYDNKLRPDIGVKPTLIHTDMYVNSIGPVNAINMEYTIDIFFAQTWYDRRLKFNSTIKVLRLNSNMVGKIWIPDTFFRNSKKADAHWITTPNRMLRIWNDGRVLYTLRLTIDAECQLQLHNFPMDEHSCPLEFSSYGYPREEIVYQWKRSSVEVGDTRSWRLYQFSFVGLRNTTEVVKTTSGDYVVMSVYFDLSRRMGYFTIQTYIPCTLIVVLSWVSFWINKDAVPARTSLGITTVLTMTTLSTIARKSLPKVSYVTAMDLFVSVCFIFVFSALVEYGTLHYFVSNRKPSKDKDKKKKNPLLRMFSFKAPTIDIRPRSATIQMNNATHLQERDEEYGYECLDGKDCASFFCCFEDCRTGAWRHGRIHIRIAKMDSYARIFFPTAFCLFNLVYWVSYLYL
Chain of Gamma-aminobutyric acid receptor subunit alpha-1/alpha-2/beta-2/gamma-2 (P47869 whole entry): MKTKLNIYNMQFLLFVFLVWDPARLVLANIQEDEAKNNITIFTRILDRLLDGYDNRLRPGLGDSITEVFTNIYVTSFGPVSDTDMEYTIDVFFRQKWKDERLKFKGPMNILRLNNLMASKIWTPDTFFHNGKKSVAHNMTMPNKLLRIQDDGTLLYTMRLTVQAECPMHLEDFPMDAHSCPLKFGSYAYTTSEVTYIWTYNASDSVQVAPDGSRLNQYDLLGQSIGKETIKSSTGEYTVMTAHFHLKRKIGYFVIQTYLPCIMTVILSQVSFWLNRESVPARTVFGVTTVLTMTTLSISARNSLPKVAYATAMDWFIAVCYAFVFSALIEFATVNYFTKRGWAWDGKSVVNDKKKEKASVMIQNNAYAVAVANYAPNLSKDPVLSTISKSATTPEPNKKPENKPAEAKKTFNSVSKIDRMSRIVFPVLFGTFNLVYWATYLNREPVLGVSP
In assay [9] the target is Gamma-aminobutyric acid receptor subunit alpha-1 (Rattus norvegicus, UniProt P62813).
Chain of Gamma-aminobutyric acid receptor subunit alpha-1 (P62813 whole entry): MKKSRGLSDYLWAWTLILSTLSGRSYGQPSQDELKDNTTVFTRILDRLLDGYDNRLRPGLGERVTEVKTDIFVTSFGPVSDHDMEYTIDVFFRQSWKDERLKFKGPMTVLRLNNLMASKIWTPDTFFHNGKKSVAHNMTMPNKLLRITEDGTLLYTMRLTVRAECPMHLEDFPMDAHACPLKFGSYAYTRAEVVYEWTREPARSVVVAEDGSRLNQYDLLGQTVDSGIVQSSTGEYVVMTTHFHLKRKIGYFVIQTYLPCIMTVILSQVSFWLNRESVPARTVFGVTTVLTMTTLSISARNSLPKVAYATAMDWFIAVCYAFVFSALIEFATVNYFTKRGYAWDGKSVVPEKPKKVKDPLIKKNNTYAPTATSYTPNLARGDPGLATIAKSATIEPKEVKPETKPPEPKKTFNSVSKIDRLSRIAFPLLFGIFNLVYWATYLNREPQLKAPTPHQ
Assay [10] deals with T4, Peroxisome proliferator-activated receptor gamma (Homo sapiens, UniProt P37231).
T4 sequence (P37231 whole entry): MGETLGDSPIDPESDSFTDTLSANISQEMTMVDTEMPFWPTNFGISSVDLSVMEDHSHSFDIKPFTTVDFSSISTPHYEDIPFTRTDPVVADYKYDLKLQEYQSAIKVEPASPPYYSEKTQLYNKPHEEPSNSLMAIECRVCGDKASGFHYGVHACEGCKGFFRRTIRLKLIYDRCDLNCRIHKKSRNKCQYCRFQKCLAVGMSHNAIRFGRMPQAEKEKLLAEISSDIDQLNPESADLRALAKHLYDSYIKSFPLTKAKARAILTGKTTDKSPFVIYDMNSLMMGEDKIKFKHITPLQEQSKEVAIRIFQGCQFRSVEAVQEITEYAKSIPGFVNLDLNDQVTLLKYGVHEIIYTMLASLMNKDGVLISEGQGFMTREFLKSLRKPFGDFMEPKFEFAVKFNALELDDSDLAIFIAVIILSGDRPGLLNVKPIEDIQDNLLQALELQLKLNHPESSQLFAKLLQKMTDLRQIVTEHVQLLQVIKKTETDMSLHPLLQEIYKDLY
It counts as functional.
Note: assay procedure not described here.

Chain of Mu-type opioid receptor (P35372 whole entry): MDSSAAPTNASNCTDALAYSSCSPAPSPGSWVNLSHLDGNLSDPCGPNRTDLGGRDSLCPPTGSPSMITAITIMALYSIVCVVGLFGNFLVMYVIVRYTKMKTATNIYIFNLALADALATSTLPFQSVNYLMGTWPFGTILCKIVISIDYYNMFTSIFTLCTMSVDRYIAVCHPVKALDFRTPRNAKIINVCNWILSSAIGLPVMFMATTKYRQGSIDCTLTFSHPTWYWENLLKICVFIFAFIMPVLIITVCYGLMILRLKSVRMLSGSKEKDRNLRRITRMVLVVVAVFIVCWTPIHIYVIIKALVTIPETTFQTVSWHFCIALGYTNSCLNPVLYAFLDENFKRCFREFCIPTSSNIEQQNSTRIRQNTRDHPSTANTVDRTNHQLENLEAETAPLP
Chain of Estrogen receptor beta (Q92731 whole entry): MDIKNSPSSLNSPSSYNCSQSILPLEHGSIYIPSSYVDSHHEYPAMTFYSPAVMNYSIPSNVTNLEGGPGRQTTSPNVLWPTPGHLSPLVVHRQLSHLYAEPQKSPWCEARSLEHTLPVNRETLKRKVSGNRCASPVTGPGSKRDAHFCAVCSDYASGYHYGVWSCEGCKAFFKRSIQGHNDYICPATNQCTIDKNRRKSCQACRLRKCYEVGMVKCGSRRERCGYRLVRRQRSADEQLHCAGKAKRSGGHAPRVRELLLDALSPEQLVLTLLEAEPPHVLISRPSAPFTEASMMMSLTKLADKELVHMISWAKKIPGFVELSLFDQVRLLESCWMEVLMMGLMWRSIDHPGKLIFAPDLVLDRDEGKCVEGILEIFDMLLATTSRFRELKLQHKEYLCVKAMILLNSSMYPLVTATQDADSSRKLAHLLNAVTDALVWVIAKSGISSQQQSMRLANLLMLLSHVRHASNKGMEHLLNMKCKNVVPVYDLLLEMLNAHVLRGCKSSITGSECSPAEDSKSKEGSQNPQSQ

Regarding `CCCCN1C[C@H](O)[C@@H](O)[C@H](O)[C@H]1CO`, the AC50 in assay [1] was > 30 µM.

In the case of `CCOC(=O)[C@H](CCc1ccccc1)N[C@@H](C)C(=O)N1[C@H](C(=O)O)C[C@@H]2CCC[C@@H]21`, the AC50 in assay [2] was > 30 µM; in assay [3] it was > 10 µM; in assay [4], > 30 µM; in [5] it was > 30 µM; in [6], > 10 µM; in assay [7], > 10 µM.

In the case of `Nc1nc(NC2CC2)c2ncn([C@H]3C=C[C@@H](CO)C3)c2n1` [ABACAVIR], the concentration at half-maximal activity (AC50) in assay [8] and in assay [1] was > 30 µM in each case.

As for `CC(=O)NCCCS(=O)(=O)O` [ACAMPROSATE], in assay [1], the AC50 is > 30 µM.

Take `CC(=O)Nc1ccc(O)cc1` [ACETAMINOPHEN]: the AC50 in assay [8] was > 30 µM.

Regarding `COc1cc2nc(N(C)CCCNC(=O)C3CCCO3)nc(N)c2cc1OC` (stereo not given) [ALFUZOSIN], in assay [1], the AC50 was > 30 µM.

Consider `C=CCc1ccccc1OCC(O)CNC(C)C` (stereo not given) [ALPRENOLOL], for which the AC50 in [1] was > 30 µM.

`CCc1oc2ccccc2c1C(=O)c1cc(I)c(O)c(I)c1` [BENZIODARONE] displayed an AC50 in [9] of 17.1 µM.

`CN(C)CCn1nnnc1SCC1=C(C(=O)O)N2C(=O)[C@@H](NC(=O)Cc3csc(N)n3)[C@H]2SC1` [CEFOTIAM]: the AC50 in assay [9] is > 30 µM.

On to `Cc1ccc(-c2cc(C(F)(F)F)nn2-c2ccc(S(N)(=O)=O)cc2)cc1` [CELECOXIB], for which the AC50 in assay [2] was > 30 µM; in assay [3], > 10 µM; in [5] it was > 30 µM; in assay [6], > 10 µM; in assay [7] it was > 10 µM.

For the compound `CC1=C(C(=O)O)N2C(=O)[C@@H](NC(=O)[C@H](N)c3ccccc3)[C@H]2SC1` [CEPHALEXIN ANHYDROUS], the concentration at half-maximal activity (AC50) in [2] is > 30 µM; in assay [3] it was > 10 µM; in [4], > 30 µM; in assay [5] it was > 30 µM; in assay [6], > 10 µM.

With `COCc1c(C(C)C)nc(C(C)C)c(/C=C/[C@@H](O)C[C@@H](O)CC(=O)O)c1-c1ccc(F)cc1` [CERIVASTATIN], the AC50 in [9] was > 30 µM.

Turning to `CN1C(=O)CCS(=O)(=O)C1c1ccc(Cl)cc1` (stereo not given) [CHLORMEZANONE], the AC50 in assay [1] is > 30 µM.

Consider `CN(C)CCC(c1ccc(Cl)cc1)c1ccccn1` (stereo not given) [CHLORPHENIRAMINE], for which the half-maximal activity concentration (AC50) is > 30 µM in [2]; > 10 µM in assay [3]; > 30 µM in [5]; > 10 µM in [6]; > 10 µM in assay [7].

As to `C[N+](C)(C)CCO` [CHOLINE], in assay [9], the AC50 was > 30 µM.

In the case of `CN(C)[C@@H](c1cccc(O)c1)[C@H]1CCCC[C@H]1O` [CIRAMADOL], in assay [9], the AC50 was > 30 µM.

Turning to `CN(C)/N=N/c1[nH]cnc1C(N)=O` [DACARBAZINE], the AC50 in [1] is > 30 µM.

With `CN(C)CC(c1ccc(O)cc1)C1(O)CCCCC1` (stereo not given) [DESVENLAFAXINE], the concentration at half-maximal activity (AC50) in [9] was > 30 µM.

`O=C(Cc1ccc(-c2ccccc2)cc1)Nc1ccccn1` [DIFENPIRAMIDE]: the AC50 in assay [8], in assay [9] and in [1] was > 30 µM in each case.

For the compound `Cc1cc(C#N)cc(C)c1Oc1nc(Nc2ccc(C#N)cc2)nc(N)c1Br` [ETRAVIRINE], the AC50 in [9] was > 30 µM.

As to `CCC1=C(C)CN(C(=O)NCCc2ccc(S(=O)(=O)NC(=O)N[C@H]3CC[C@H](C)CC3)cc2)C1=O` [GLIMEPIRIDE], in assay [9], the AC50 is > 30 µM.

As to `C[C@]12CCC(=O)C=C1CC[C@@H]1[C@@H]2[C@@H](O)C[C@@]2(C)[C@H]1CC[C@]2(O)C(=O)CO` [HYDROCORTISONE], the AC50 in assay [2] was > 30 µM; in [3], > 10 µM; in assay [4], > 30 µM; in [5], > 30 µM; in assay [6], > 10 µM; in [7] it was > 10 µM.

As for `O=P1(NCCCl)OCCCN1CCCl` (stereo not given) [IFOSFAMIDE], the AC50 in [1] was > 30 µM.

Take `CC(C)Nc1ncccn1` [ISAXONINE]: the AC50 in [9] was > 30 µM.

As for `CCC(C)n1ncn(-c2ccc(N3CCN(c4ccc(OCC5COC(Cn6cncn6)(c6ccc(Cl)cc6Cl)O5)cc4)CC3)cc2)c1=O` (stereo not given) [ITRACONAZOLE], the AC50 in assay [2] is > 30 µM; in assay [3], > 10 µM; in assay [4], > 30 µM; in [5], > 30 µM; in assay [1] it was > 30 µM; in [6], 1.54 µM. In assay [7], the AC50 was > 10 µM.

In the case of `N[C@@H](C(=O)N[C@@H]1C(=O)N2C(C(=O)O)=C(Cl)CC[C@H]12)c1ccccc1` [LORACARBEF ANHYDROUS], the AC50 in assay [9] was > 30 µM.

On to `CC1(C)NC(=O)N(c2ccc([N+](=O)[O-])c(C(F)(F)F)c2)C1=O` [NILUTAMIDE], for which the AC50 in assay [9] and in [1] was > 30 µM each time.

Regarding `Cc1nc([N+](=O)[O-])cn1-c1ccc([N+](=O)[O-])cc1` [NITREFAZOLE], the AC50 in assay [1] is > 30 µM.

As for `CC[C@H]1[C@@H](O)[C@@H]2[C@H](CC[C@]3(C)[C@@H]([C@H](C)CCC(=O)O)CC[C@@H]23)[C@@]2(C)CC[C@@H](O)C[C@@H]12` [OBETICHOLIC ACID], the AC50 in [1] was > 30 µM.

For `CN(C)S(=O)(=O)c1ccc2c(c1)N(CCCN1CCC(CCO)CC1)c1ccccc1S2` [PIPOTIAZINE], the concentration at half-maximal activity (AC50) in [9] is > 30 µM.

On to `COCCCN1CCC(NC(=O)c2cc(Cl)c(N)c3c2OCC3)CC1` [PRUCALOPRIDE], for which the AC50 in assay [8], in assay [9] and in assay [10] was > 30 µM in each case.

Turning to `CCC(=O)NCC[C@@H]1CCc2ccc3c(c21)CCO3` [RAMELTEON], the AC50 in assay [9] is > 30 µM.

As to `COc1ccccc1OCC(O)CN1CCN(CC(=O)Nc2c(C)cccc2C)CC1` (stereo not given) [RANOLAZINE], the AC50 in assay [1] is > 30 µM.

As for `CO[C@H]1C[C@@H]2CC[C@@H](C)[C@@](O)(O2)C(=O)C(=O)N2CCCC[C@H]2C(=O)O[C@H]([C@H](C)C[C@@H]2CC[C@@H](O)[C@H](OC)C2)CC(=O)[C@H](C)/C=C(\C)[C@@H](O)[C@@H](OC)C(=O)[C@H](C)C[C@H](C)/C=C/C=C/C=C/1C` [SIROLIMUS], the AC50 in assay [2], in assay [4], in assay [9] and in [5] was > 30 µM each time.

Consider `Clc1ccc2nsnc2c1NC1=NCCN1` [TIZANIDINE], for which the AC50 in [2] is > 30 µM; in assay [4], > 30 µM; in [5], > 30 µM; in assay [1], > 30 µM; in assay [6] it was > 10 µM; in assay [7], > 10 µM.

Regarding `CCOC(=O)[C@H](CCc1ccccc1)N[C@@H](C)C(=O)N1[C@H](C(=O)O)C[C@H]2CCCC[C@@H]21` [TRANDOLAPRIL], the AC50 in assay [9] was > 30 µM.

Turning to `O=C(O[C@H]1C[C@H]2CC[C@@H](C1)[N+]21CCCC1)C(O)(c1ccccc1)c1ccccc1` [TROSPIUM], the AC50 in assay [1] was > 30 µM.

`Cc1cn([C@H]2C[C@H](N=[N+]=[N-])[C@@H](CO)O2)c(=O)[nH]c1=O` [ZIDOVUDINE]: the AC50 in assay [2] is > 30 µM; in [3], > 10 µM; in assay [9], > 30 µM; in assay [5], > 30 µM; in assay [6], > 10 µM; in assay [7], > 10 µM.
